According to paper PMC11239673, “Structural basis for the bi-specificity of USP25 and USP28 inhibitors” (EMBO Reports, 2024):

Target: T1, USP25Δtip E373A (Homo sapiens, UniProt Q9UHP3, DEL465-537/E373A/INS464GSGSGS)
T1 construct: 6xHis or thioredoxin-6xHis (N, cleaved yes); made in house; host or cells: E. coli BL21star (DE3)
T1 sequence (Q9UHP3 with tags, fused parts or gaps E373A/DEL465-477/P478G/DEL482-535/A536G/P537S limits assumed): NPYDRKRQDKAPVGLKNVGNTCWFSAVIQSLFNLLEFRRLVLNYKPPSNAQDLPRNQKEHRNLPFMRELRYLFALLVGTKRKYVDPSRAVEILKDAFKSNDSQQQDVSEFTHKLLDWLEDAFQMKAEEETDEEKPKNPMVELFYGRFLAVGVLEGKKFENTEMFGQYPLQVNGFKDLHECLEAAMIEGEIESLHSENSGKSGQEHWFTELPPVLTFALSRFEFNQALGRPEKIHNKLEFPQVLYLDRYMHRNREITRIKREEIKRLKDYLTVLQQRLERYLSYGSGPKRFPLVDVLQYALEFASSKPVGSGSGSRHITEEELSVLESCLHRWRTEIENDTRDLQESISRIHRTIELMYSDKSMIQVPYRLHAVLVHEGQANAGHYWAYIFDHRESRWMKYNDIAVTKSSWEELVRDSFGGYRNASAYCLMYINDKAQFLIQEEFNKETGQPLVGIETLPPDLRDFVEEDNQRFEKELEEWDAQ
Assay: Ub-Rho110 dose–response assay, USP25Δtip E373A
Type: biochemical

Cc1ccc2c(N)c(C(=O)NC3CCc4cc(N5CC6CCC(C5)N6)ccc4C3)sc2n1 (stereo not shown) [FT206]
t-test vs. USP25 WT control - E373A (p value, inhibitor IC50 on USP25 E373A compared with USP25 WT): 3.888E-04
inhibition at 11.11 µM (read-out: relative inhibition [%] - USP25 - E373A, inhibitor 11.11 µM, single replicates): 13.3%
inhibition at 33.33 µM (read-out: relative inhibition [%] - USP25 - E373A, inhibitor 33.33 µM, single replicates): 33.6%
inhibition at 100 µM (read-out: relative inhibition [%] - USP25 - E373A, inhibitor 100.00 µM, single replicates): 59.9%
